Results published in PubChem BioAssay AID330 (DTP/NCI, 2004).
Several values for one entry are separate records, joined by “and”; a condition that tells them apart may be missing. Equal entries are not always repeated. Toxic doses and inconclusive results are not listed.

System: P388 leukemia ip, CD2F1 mice, survival T/C
Assay: NCI In Vivo Anticancer Drug Screen. Data for tumor model P388 Leukemia (intraperitoneal) in CD2F1 (CDF1) mice
Conditions: endpoint: median survival time, higher = longer survival
Procedure, shortened: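 Mice carrying the transplanted tumor received test compound or vehicle. Survival was recorded in each group, and the value is the treated-group measurement divided by that of the vehicle-treated control group.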

[1] = dose: 12.5 mg/kg/injection, schedule: Q01DX009 (ip), vehicle: saline with Tween-80
[2] = dose: 25.0 mg/kg/injection, schedule: Q01DX009 (ip), vehicle: saline with Tween-80
[3] = dose: 50.0 mg/kg/injection, schedule: Q01DX009 (ip), vehicle: saline with Tween-80
[4] = dose: 100.0 mg/kg/injection, schedule: Q01DX009 (ip), vehicle: saline with Tween-80
[5] = dose: 200.0 mg/kg/injection, schedule: Q01DX009 (ip), vehicle: saline with Tween-80

CCCCCCC1CC1C(=O)NCCCCCN=C(N)N (stereo unspecified)
T/C (dose: 7.5 mg/kg/injection, schedule: Q01DX009 (ip), vehicle: Klucel (hydroxypropylcellulose) (HPC)): 100 % of control
T/C (dose: 15.0 mg/kg/injection, schedule: Q01DX009 (ip), vehicle: Klucel (hydroxypropylcellulose) (HPC)): 100 % of control
T/C (dose: 30.0 mg/kg/injection, schedule: Q01DX009 (ip), vehicle: Klucel (hydroxypropylcellulose) (HPC)): 107 % of control

COc1ccc(N=NS(=O)(=O)O)cn1
T/C (dose: 3.12 mg/kg/injection, schedule: Q01DX009 (ip), vehicle: saline with Tween-80): 93 % of control
T/C (dose: 6.25 mg/kg/injection, schedule: Q01DX009 (ip), vehicle: saline with Tween-80): 101 % of control
T/C [1]: 108 % of control
T/C [2]: 97 % of control
T/C [3]: 99 % of control and 97 % of control
T/C [4]: 94 % of control
T/C [5]: 106 % of control
T/C (dose: 400.0 mg/kg/injection, schedule: Q01DX009 (ip), vehicle: saline with Tween-80): 101 % of control

COc1cc(C2=N/C(=C/c3cccs3)C(=O)O2)cc(OC)c1OC
T/C (dose: 6.25 mg/kg/injection, schedule: Q01DX009 (ip), vehicle: Klucel (hydroxypropylcellulose) (HPC)): 98 % of control
T/C (dose: 12.5 mg/kg/injection, schedule: Q01DX009 (ip), vehicle: Klucel (hydroxypropylcellulose) (HPC)): 108 % of control
T/C (dose: 25.0 mg/kg/injection, schedule: Q01DX009 (ip), vehicle: Klucel (hydroxypropylcellulose) (HPC)): 106 % of control

COc1ccc(C2=C(Cl)C(=O)N(c3cccc(Cl)c3)C(=O)C2(Cl)Cl)cc1
T/C (dose: 100.0 mg/kg/injection, schedule: Q04DX002 (ip), vehicle: Klucel (hydroxypropylcellulose) (HPC)): 100 % of control and 86 % of control (2×)
T/C (dose: 200.0 mg/kg/injection, schedule: Q04DX002 (ip), vehicle: Klucel (hydroxypropylcellulose) (HPC)): 104 % of control and 91 % of control and 97 % of control
T/C (dose: 400.0 mg/kg/injection, schedule: Q04DX002 (ip), vehicle: Klucel (hydroxypropylcellulose) (HPC)): 100 % of control and 122 % of control and 90 % of control
T/C (dose: 600.0 mg/kg/injection, schedule: Q04DX002 (ip), vehicle: Klucel (hydroxypropylcellulose) (HPC)): 98 % of control and 109 % of control

CC(C)(C=O)CNC(C)(C)C
T/C [2]: 110 % of control
T/C [3]: 100 % of control and 108 % of control
T/C [4]: 103 % of control and 105 % of control
T/C [5]: 91 % of control and 103 % of control

COc1cccc2c1C(=O)c1c(O)c3c(c(O)c1C2=O)C[C@@](O)(C(=O)CO)C[C@@H]3OC1CC(NC(=O)C(N)CC(C)C)C(O)C(C)O1 (stereo partly specified)
T/C (dose: 3.12 mg/kg/injection, schedule: Q04DX003 (ip), vehicle: saline): 105 % of control
T/C (dose: 6.25 mg/kg/injection, schedule: Q04DX003 (ip), vehicle: saline): 118 % of control
T/C (dose: 25.0 mg/kg/injection, schedule: Q04DX003 (ip), vehicle: saline): 150 % of control

c1cc(C2CCOCC2)ccn1
T/C [1]: 100 % of control
T/C (dose: 12.5 mg/kg/injection, schedule: Q04DX003 (ip), vehicle: saline with Tween-80): 100 % of control
T/C [2]: 90 % of control
T/C (dose: 25.0 mg/kg/injection, schedule: Q04DX003 (ip), vehicle: saline with Tween-80): 100 % of control
T/C [3]: 100 % of control
T/C (dose: 50.0 mg/kg/injection, schedule: Q04DX003 (ip), vehicle: saline with Tween-80): 95 % of control

Cn1cnc2cc(N3CCCCC3)c(Nc3ccc([N+](=O)[O-])cc3[N+](=O)[O-])cc2c1=O
T/C (dose: 100.0 mg/kg/injection, schedule: Q04DX003 (ip), vehicle: Klucel (hydroxypropylcellulose) (HPC)): 103 % of control
T/C (dose: 200.0 mg/kg/injection, schedule: Q04DX003 (ip), vehicle: Klucel (hydroxypropylcellulose) (HPC)): 98 % of control
T/C (dose: 400.0 mg/kg/injection, schedule: Q04DX003 (ip), vehicle: Klucel (hydroxypropylcellulose) (HPC)): 95 % of control

CCOC(=O)c1ccc(NC(=O)Nc2ccc(OC)cc2Cl)cc1
T/C (dose: 60.0 mg/kg/injection, schedule: Q01DX005 (ip), vehicle: Klucel (hydroxypropylcellulose) (HPC)): 91 % of control
T/C (dose: 120.0 mg/kg/injection, schedule: Q01DX005 (ip), vehicle: Klucel (hydroxypropylcellulose) (HPC)): 93 % of control
T/C (dose: 240.0 mg/kg/injection, schedule: Q01DX005 (ip), vehicle: Klucel (hydroxypropylcellulose) (HPC)): 96 % of control

Nc1nc2[nH]ccc2c(=O)[nH]1
T/C [1]: 95 % of control
T/C [2]: 94 % of control
T/C [3]: 104 % of control
T/C [4]: 113 % of control

CCC12CCCN1CCc1c([nH]c3ccccc13)C2=O (stereo unspecified)
T/C (dose: 100.0 mg/kg/injection, schedule: Q04DX002 (ip), vehicle: suspension in saline): 105 % of control
T/C (dose: 200.0 mg/kg/injection, schedule: Q04DX002 (ip), vehicle: suspension in saline): 99 % of control

CS/C(=C\c1ccc2ccccc2[n+]1C)N1CCN(CCCO)CC1
T/C (dose: 15.0 mg/kg/injection, schedule: Q01DX005 (ip), vehicle: saline): 104 % of control
T/C (dose: 30.0 mg/kg/injection, schedule: Q01DX005 (ip), vehicle: saline): 95 % of control
T/C (dose: 60.0 mg/kg/injection, schedule: Q01DX005 (ip), vehicle: saline): 95 % of control
